Experimental data as given in patent US6958344B2, “Pyrimidine compounds and their use as modulators of chemokine receptor activity” (AstraZeneca AB, priority 2000, dated 2005).

C[C@H](CO)Nc1nc(SCc2ccccc2F)nc2[nH]c(N)nc12 [Example 4, (2R)-2-[[8-amino-2-[[(2-fluorophenyl)methyl]thio]-9H-purin-6-yl]amino]-1-propanol]
melting point: 250 to 255 °C (dec.)
